From patent US20040018623A1, “Medium for preparing dedifferentiated cells” (priority 1999, published 2004) come the findings set out here.

For one test, the system named is isolated canine islets. As to the kind of experiment: Islet-cystic (duct epithelial) transformation / transdifferentiation of isolated islets. It counts as cell-based. The note with it: for cystic transformation, % of control: at 72 hours, islets pre-incubated prior to embedding in collagen, control = DMEM/F12-CT group; for ductal transformation in suspension with soluble matrix protein: islets in suspension in DMEM/F12-CT supplemented with soluble protein (50 μg/ml).

For test [1], the target named is integrins (on isolated canine islet cells) (dog). As to the kind of experiment: cell-based or functional assay.

Consider GRGDSP [reference compound], for which the “cystic transformation, % of control” value with isolated canine islets is on record as 57 % of control. The “islet cell transdifferentiation after prior incubation of freshly isolated islets with peptide” value in the test with isolated canine islets (prior incubation of islets with the peptide) was “partially blocked”. Consider “GRGESP [control peptide, reference compound]”, for which, in the test with isolated canine islets (islets pre-incubated with peptide (400 μg/ml) prior to embedding in collagen), the “influence on the transformation process” value was “little influence”.

In the case of fibronectin, in the test on isolated canine islets, the “cystic transformation, % of control” value is given as 50 % of control and the “ductal transformation in suspension with soluble matrix protein” value is reported as “failed to undergo ductal transformation”. In the same order, the values of laminin are 50 % of control and “failed to undergo ductal transformation”. On to GRGDSP [RGD-motif containing GRGDSP peptide], for which the islet-cystic transformation at 72 hours, percent of the control DMEM/F12-CT group in test [1] was 57 % of control.
